Tested on: Plasmodium berghei
Assay: Luciferase/luciferin-expressing antifolate-resistant parasites were used to infect a culture of HepG2 cells that were pre-incubated with compounds. Infected hepatocytes emit light due to the luciferase reaction. Assay results are presented as the percent inhibition of light emission compared to control. […]
Format: functional
Settings: sporozoite; for IC90: read-out: LUCIFERASE INFECTION ASSAY - IC90

Compound | IC90 [µM] | other results
CC(=O)c1ccc(-c2ccc(C(=O)Nc3nc(-c4ccccn4)cs3)o2)cc1 | 7.29 | IC50 (HEPG2TOX_HILL_SLOPE 2.67, HEPG2TOX_R_SQUARED 0.908, PBLUC_HILL_SLOPE 30.3, PBLUC_R_SQUARED 0.327, read-out: LUCIFERASE INFECTION ASSAY - IC50): 6.78 µM
COc1cc(-c2cnc3cnc(-c4ccc(N)nc4)cn23)ccc1O | 4.1 | IC50 (HEPG2TOX_HILL_SLOPE 2.67, HEPG2TOX_R_SQUARED 0.695, PBLUC_HILL_SLOPE 3.91, PBLUC_R_SQUARED 0.793, read-out: LUCIFERASE INFECTION ASSAY - IC50): 2.33 µM
COc1cc(-c2cn3c(-c4ccc5ncccc5c4)cnc3cn2)cc(OC)c1OC | 7.92 | IC50 (HEPG2TOX_HILL_SLOPE 2.69, HEPG2TOX_R_SQUARED 0.906, PBLUC_HILL_SLOPE 2.74, PBLUC_R_SQUARED 0.535, read-out: LUCIFERASE INFECTION ASSAY - IC50): 3.55 µM
O=C(/C(=N/Nc1ccc([N+](=O)[O-])cc1)C(=O)C(F)(F)F)c1cccs1 | 1 | IC50 (HEPG2TOX_HILL_SLOPE 2.64, HEPG2TOX_R_SQUARED 0.853, PBLUC_HILL_SLOPE 14.9, PBLUC_R_SQUARED 0.662, read-out: LUCIFERASE INFECTION ASSAY - IC50): 0.866 µM
Cc1nc(-c2ccc(C(C)Nc3cnn(-c4ccccc4)c(=O)c3Cl)cc2)cs1 (stereo not given) | 5.07 | IC50 (HEPG2TOX_HILL_SLOPE 2.7, HEPG2TOX_R_SQUARED 0.839, PBLUC_HILL_SLOPE 8.17, PBLUC_R_SQUARED 0.802, read-out: LUCIFERASE INFECTION ASSAY - IC50): 3.88 µM
COc1ccc(-c2cnc3cnc(-c4cccc(F)c4)cn23)cc1 | 7.12 | IC50 (HEPG2TOX_HILL_SLOPE 2.64, HEPG2TOX_R_SQUARED 0.99, PBLUC_HILL_SLOPE 1.99, PBLUC_R_SQUARED 0.779, read-out: LUCIFERASE INFECTION ASSAY - IC50): 2.36 µM
CCNC(=O)NC(=O)C(Sc1nncn1-c1ccccc1OC)c1ccccc1 (stereo not given) | 9.43 | IC50 (HEPG2TOX_HILL_SLOPE 2.69, HEPG2TOX_R_SQUARED 0.767, PBLUC_HILL_SLOPE 3.33, PBLUC_R_SQUARED 0.658, read-out: LUCIFERASE INFECTION ASSAY - IC50): 4.87 µM
Cc1ccc2nc(NC(=O)c3cc(F)ccc3C)c(C(=O)NCC(C)C)n2c1 | 3.84 | IC50 (HEPG2TOX_HILL_SLOPE 2.69, HEPG2TOX_R_SQUARED 0.883, PBLUC_HILL_SLOPE 9.75, PBLUC_R_SQUARED 0.136, read-out: LUCIFERASE INFECTION ASSAY - IC50): 3.07 µM
NC(=O)c1ccc(-c2ccnc3n[nH]c(-c4cccc(F)c4)c23)cc1 | 3.73 | IC50 (HEPG2TOX_HILL_SLOPE 2.67, HEPG2TOX_R_SQUARED 0.872, PBLUC_HILL_SLOPE 9.91, PBLUC_R_SQUARED 0.595, read-out: LUCIFERASE INFECTION ASSAY - IC50): 2.99 µM
COc1ccc(C(C)C)cc1-c1cnc(N)c(-c2ccc(O)cc2)c1 | 3.69 | IC50 (HEPG2TOX_HILL_SLOPE 2.7, HEPG2TOX_R_SQUARED 0.932, PBLUC_HILL_SLOPE 18.7, PBLUC_R_SQUARED 0.395, read-out: LUCIFERASE INFECTION ASSAY - IC50): 3.28 µM
O=C(NNC(=S)Nc1cccc(C(F)(F)F)c1)c1[nH]c2ccccc2c1-c1ccccc1 | 2.73 | IC50 (HEPG2TOX_HILL_SLOPE 2.69, HEPG2TOX_R_SQUARED 0.963, PBLUC_HILL_SLOPE 11.7, PBLUC_R_SQUARED 0.673, read-out: LUCIFERASE INFECTION ASSAY - IC50): 2.27 µM
Cc1nc(SCc2cccc(S(=O)(=O)N(C)C)c2)c2ccccc2n1 | > 10 | IC50 (HEPG2TOX_HILL_SLOPE 2.7, HEPG2TOX_R_SQUARED 0.556, read-out: LUCIFERASE INFECTION ASSAY - IC50): > 10 µM
C[C@H]1O[C@@H](O[C@H]2[C@@H](O)C[C@H](O[C@H]3[C@@H](O)C[C@H](O[C@H]4CC[C@]5(C)C6CC[C@]7(C)[C@@H](C8=CC(=O)OC8)CC[C@]7(O)C6CC[C@@H]5C4)O[C@@H]3C)O[C@@H]2C)C[C@H](O)[C@H]1O (stereo not given in full) | 3.31 | IC50 (HEPG2TOX_HILL_SLOPE 2.7, HEPG2TOX_R_SQUARED 0.866, PBLUC_HILL_SLOPE 1.79, PBLUC_R_SQUARED 0.476, read-out: LUCIFERASE INFECTION ASSAY - IC50): 0.969 µM
Cc1ccc(N2CC(C(=O)Nc3cc(C4CC4)n[nH]3)CC2=O)cc1 (stereo not given) | 2.23 | IC50 (HEPG2TOX_HILL_SLOPE 2.65, HEPG2TOX_R_SQUARED 0.943, PBLUC_HILL_SLOPE 2.62, PBLUC_R_SQUARED 0.892, read-out: LUCIFERASE INFECTION ASSAY - IC50): 0.963 µM
COc1cc2c(cc1OC)CN(CCNc1ncnc3sccc13)CC2 | > 10 | IC50 (HEPG2TOX_HILL_SLOPE 2.69, HEPG2TOX_R_SQUARED 0.552, PBLUC_HILL_SLOPE 1.83, PBLUC_R_SQUARED 0.419, read-out: LUCIFERASE INFECTION ASSAY - IC50): 3.93 µM
CCCN(CCC)c1ccc(/C=C2\C=c3c(O)cccc3=C2O)cc1 | 3.37 | IC50 (HEPG2TOX_HILL_SLOPE 2.7, HEPG2TOX_R_SQUARED 0.839, PBLUC_HILL_SLOPE 2.95, PBLUC_R_SQUARED 0.682, read-out: LUCIFERASE INFECTION ASSAY - IC50): 1.6 µM
Clc1cccc(-c2ccnc3n[nH]c(-c4cccnc4)c23)c1 | 4.14 | IC50 (HEPG2TOX_HILL_SLOPE 2.64, HEPG2TOX_R_SQUARED 0.942, PBLUC_HILL_SLOPE 10.9, PBLUC_R_SQUARED 0.513, read-out: LUCIFERASE INFECTION ASSAY - IC50): 3.39 µM
CO/N=C(/CS(=O)(=O)c1ccc(OC)cc1)c1ccc(Cl)cc1 | > 9.33 | IC50 (HEPG2TOX_HILL_SLOPE 2.67, HEPG2TOX_R_SQUARED 0.896, PBLUC_HILL_SLOPE 4.33, PBLUC_R_SQUARED 0.342, read-out: LUCIFERASE INFECTION ASSAY - IC50): 6.46 µM
CC(=O)OC1CCC2(C)C3CCC4(C)C(C5=CC(=O)OC5)CCC4(O)C3CCC2(O)C1 (stereo not given) | > 7.63 | IC50 (HEPG2TOX_HILL_SLOPE 2.67, HEPG2TOX_R_SQUARED 0.733, PBLUC_HILL_SLOPE 2.15, PBLUC_R_SQUARED 0.208, read-out: LUCIFERASE INFECTION ASSAY - IC50): 3 µM
CC(=O)c1cccc(-c2cnc3c(Nc4cccc(OC(F)(F)C(F)F)c4)nccn23)c1 | 6 | IC50 (HEPG2TOX_HILL_SLOPE 2.66, HEPG2TOX_R_SQUARED 0.947, PBLUC_HILL_SLOPE 1.76, PBLUC_R_SQUARED 0.616, read-out: LUCIFERASE INFECTION ASSAY - IC50): 1.72 µM
CCOC(=O)/C=C/c1ccc(NC(=O)C2CCCN2c2ncnc3ccccc23)cc1 (stereo not given) | > 10 | IC50 (HEPG2TOX_HILL_SLOPE 2.7, HEPG2TOX_R_SQUARED 0.523, PBLUC_HILL_SLOPE 3.32, PBLUC_R_SQUARED 0.679, read-out: LUCIFERASE INFECTION ASSAY - IC50): 6.13 µM
COc1cc(C(=O)Nc2ccc(-c3csc(N4CCOCC4)n3)cc2)cc(Cl)c1OC | > 10 | IC50 (HEPG2TOX_HILL_SLOPE 2.64, HEPG2TOX_R_SQUARED 0.944, PBLUC_HILL_SLOPE 1.81, PBLUC_R_SQUARED 0.542, read-out: LUCIFERASE INFECTION ASSAY - IC50): 3.98 µM
O=C(c1c(-c2ccccc2)c2c3n(c(CN(C(=O)C4CC4)c4ccccc4)nn13)CCCC2)C1CC1 | > 10 | IC50 (HEPG2TOX_HILL_SLOPE 2.64, HEPG2TOX_R_SQUARED 0.879, read-out: LUCIFERASE INFECTION ASSAY - IC50): > 10 µM
Cc1ccccc1N1CCN(Cc2csc(-c3ccccc3Cl)n2)CC1 | 3.67 | IC50 (HEPG2TOX_HILL_SLOPE 2.7, HEPG2TOX_R_SQUARED 0.815, PBLUC_HILL_SLOPE 21.2, PBLUC_R_SQUARED 0.497, read-out: LUCIFERASE INFECTION ASSAY - IC50): 3.3 µM
COc1ccc(/C=C2\C(=O)/C(=C/c3ccc(OC)c(O)c3)c3ccccc32)cc1O | 3.46 | IC50 (HEPG2TOX_HILL_SLOPE 2.67, HEPG2TOX_R_SQUARED 0.974, PBLUC_HILL_SLOPE 3.5, PBLUC_R_SQUARED 0.766, read-out: LUCIFERASE INFECTION ASSAY - IC50): 1.85 µM
COc1ccccc1-c1ccnc2n[nH]c(-c3cc(OC)c(OC)c(OC)c3)c12 | 3.93 | IC50 (HEPG2TOX_HILL_SLOPE 2.69, HEPG2TOX_R_SQUARED 0.93, PBLUC_HILL_SLOPE 7.13, PBLUC_R_SQUARED 0.294, read-out: LUCIFERASE INFECTION ASSAY - IC50): 2.89 µM
CC(C)c1ccc(C(Nc2ccc3nnnn3n2)c2cccs2)cc1 (stereo not given) | 5.57 | IC50 (HEPG2TOX_HILL_SLOPE 2.7, HEPG2TOX_R_SQUARED 0.805, PBLUC_HILL_SLOPE 2.3, PBLUC_R_SQUARED 0.604, read-out: LUCIFERASE INFECTION ASSAY - IC50): 2.14 µM
CC(=O)Nc1cccc(Nc2cc3c(cn2)ncn3CC2CC2)c1 | > 10 | IC50 (HEPG2TOX_HILL_SLOPE 2.64, HEPG2TOX_R_SQUARED 0.966, PBLUC_HILL_SLOPE 2.21, PBLUC_R_SQUARED 0.507, read-out: LUCIFERASE INFECTION ASSAY - IC50): 6.65 µM
FC(F)Oc1ccc(NC(=S)NNC(=S)Nc2ccc(Cl)cc2)cc1 | 4.51 | IC50 (HEPG2TOX_HILL_SLOPE 2.66, HEPG2TOX_R_SQUARED 0.926, PBLUC_HILL_SLOPE 1.61, PBLUC_R_SQUARED 0.703, read-out: LUCIFERASE INFECTION ASSAY - IC50): 1.16 µM
COc1ccc(-c2cnc3ccc(NCc4ccc(S(N)(=O)=O)cc4)nn23)cn1 | > 8.04 | IC50 (HEPG2TOX_HILL_SLOPE 2.67, HEPG2TOX_R_SQUARED 0.289, PBLUC_HILL_SLOPE 3.8, PBLUC_R_SQUARED 0.626, read-out: LUCIFERASE INFECTION ASSAY - IC50): 4.71 µM
